Test results from ChEMBL document CHEMBL5338758, “Design, Synthesis, and Bioevaluation of Novel MyD88 Inhibitor c17 against Acute Lung Injury Derived from the Virtual Screen” (J Med Chem, 2023).
Activity calls are given as the source filed them. No cut-off for these calls is given here.

How the values were obtained:
[1] = target: Myeloid differentiation primary response protein MyD88 (Homo sapiens, UniProt Q99836); test: Binding affinity to human MyD88 TIR domain assessed as equilibrium dissociation constant by SPR analysis
Sequence of Myeloid differentiation primary response protein MyD88 (Q99836 whole entry, the tested form may be a part): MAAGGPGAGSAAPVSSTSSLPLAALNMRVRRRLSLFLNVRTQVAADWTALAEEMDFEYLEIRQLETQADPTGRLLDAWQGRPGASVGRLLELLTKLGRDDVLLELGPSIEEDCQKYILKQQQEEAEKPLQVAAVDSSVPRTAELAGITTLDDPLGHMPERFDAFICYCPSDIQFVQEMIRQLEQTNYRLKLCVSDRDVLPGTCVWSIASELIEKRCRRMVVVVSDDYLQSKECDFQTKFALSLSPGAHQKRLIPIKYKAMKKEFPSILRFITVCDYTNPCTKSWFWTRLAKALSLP

J774.A1 [2] = test: Anti-inflammatory activity in mouse J774.A1 cells assessed as inhibition of LPS-induced TNF-alpha production pre-stimulated with LPS for 24 hrs followed by compound addition and measured after 0.5 hrs by ELISA analysis; type: functional, cell-based
THP-1 = test: Anti-inflammatory activity in human THP-1 cells assessed as inhibition of LPS-stimulated TNF-alpha release at 1.25 to 20 uM by ELISA analysis; type: functional, cell-based; conditions: dose 1.25-20 µM
J774.A1 [3] = test: Inhibition of NF-kappaB pathway in LPS-induced mouse J774.A1 cells assessed as decrease in p65 nuclear translocation preincubated with compound for 2 hrs followed by LPS-stimulation and measured after 15 mins by Western blot analysis; type: cell-based; conditions: dose 10-40 µM, time 135.0 min
J774.A1 [4] = test: Inhibition of NF-kappaB pathway in LPS-induced mouse J774.A1 cells assessed as […] in IkappaB-alpha phosphorylation at 10 to 40 uM preincubated with compound for 2 hrs followed by LPS-stimulation and measured after 15 mins by Western blot analysis; type: cell-based; conditions: dose 10-40 µM, time 135.0 min
[5] = Stability of compound in rat serum at 32 degreeC measured every 2 hrs for 24 hrs by HPLC analysis; type: ADME, cell-free
[6] = Half-life in Sprague-Dawley rat at 1 mg/kg, iv measured at 5 to 1440 min by LC-MS/MS analysis; type: ADME, organism-based; conditions: in vivo, time 5-1440 min
[7] = Tmax in Sprague-Dawley rat at 1 mg/kg, iv measured at 5 to 1440 min by LC-MS/MS analysis; type: ADME, organism-based; conditions: in vivo, time 5-1440 min
[8] = Half-life in Sprague-Dawley rat at 10 mg/kg, po measured at 15 to 1440 min by LC-MS/MS analysis; type: ADME, organism-based; conditions: in vivo, time 15-1440 min
[9] = Cmax in Sprague-Dawley rat at 10 mg/kg, po measured at 15 to 1440 min by LC-MS/MS analysis; type: ADME, organism-based; design: time lower 15 min, dose 10 mg/kg, time upper 1440 min, route po; conditions: in vivo
[10] = AUC (0 to t) in Sprague-Dawley rat at 10 mg/kg, po measured at 15 to 1440 min by LC-MS/MS analysis; type: ADME, organism-based; design: time 15-1440 min, dose 10 mg/kg, route po; conditions: in vivo
[11] = Oral bioavailability in Sprague-Dawley rat at 10 mg/kg measured at 15 to 1440 min by LC-MS/MS analysis; type: ADME, organism-based; conditions: in vivo, time 15-1440 min
[12] = Drug distribution in Sprague-Dawley rat heart at 1 mg/kg, iv measured after 0.5 hrs by LC-MS/MS analysis; type: ADME, organism-based; conditions: read-out: Drug uptake
[13] = Drug distribution in Sprague-Dawley rat kidney at 1 mg/kg, iv measured after 0.5 hrs by LC-MS/MS analysis; type: ADME, organism-based; conditions: read-out: Drug uptake
[14] = Drug distribution in Sprague-Dawley rat lung at 1 mg/kg, iv measured after 0.5 hrs by LC-MS/MS analysis; type: ADME, organism-based; conditions: read-out: Drug uptake
[15] = Drug distribution in Sprague-Dawley rat heart at 1 mg/kg, iv measured after 2 hrs by LC-MS/MS analysis; type: ADME, organism-based; conditions: read-out: Drug uptake
[16] = Drug distribution in Sprague-Dawley rat kidney at 1 mg/kg, iv measured after 2 hrs by LC-MS/MS analysis; type: ADME, organism-based; conditions: read-out: Drug uptake
[17] = Drug distribution in Sprague-Dawley rat brain at 1 mg/kg, iv measured after 2 hrs by LC-MS/MS analysis; type: ADME, organism-based; conditions: read-out: Drug uptake
[18] = Drug distribution in Sprague-Dawley rat kidney at 1 mg/kg, iv measured after 4 hrs by LC-MS/MS analysis; type: ADME, organism-based; conditions: read-out: Drug uptake
[19] = Drug distribution in Sprague-Dawley rat lung at 1 mg/kg, iv measured after 4 hrs by LC-MS/MS analysis; type: ADME, organism-based; conditions: read-out: Drug uptake
[20] = Drug distribution in Sprague-Dawley rat spleen at 1 mg/kg, iv measured after 4 hrs by LC-MS/MS analysis; type: ADME, organism-based; conditions: read-out: Drug uptake
[21] = Drug distribution in Sprague-Dawley rat liver at 10 mg/kg, po measured after 1 hrs by LC-MS/MS analysis; type: ADME, organism-based; conditions: read-out: Drug uptake
[22] = Drug distribution in Sprague-Dawley rat spleen at 10 mg/kg, po measured after 1 hrs by LC-MS/MS analysis; type: ADME, organism-based; conditions: read-out: Drug uptake
[23] = Drug distribution in Sprague-Dawley rat kidney at 10 mg/kg, po measured after 8 hrs by LC-MS/MS analysis; type: ADME, organism-based; conditions: read-out: Drug uptake
[24] = Drug distribution in Sprague-Dawley rat brain at 10 mg/kg, po measured after 8 hrs by LC-MS/MS analysis; type: ADME, organism-based; conditions: read-out: Drug uptake
[25] = Drug distribution in Sprague-Dawley rat spleen at 10 mg/kg, po measured after 8 hrs by LC-MS/MS analysis; type: ADME, organism-based; conditions: read-out: Drug uptake
[26] = Toxicity in ICR mouse assessed as effect on body weight change at 20 to 400 mg/kg, po measured upto 21 days; type: organism-based; conditions: in vivo, 504 h, dose 20-400 mg/kg, time < 21 day
Mus musculus [27] = test: Anti-inflammatory activity against LPS-induced […] mouse model of […] assessed as alleviation of thickened alveolar septa in lung at 20 mg/kg, po pre-treated with compound for 30 mins followed by LPS stimulation and measured after 6 hrs by H&E staining based histopathological analysis; type: functional, organism-based; conditions: time 6.5 hrs
Mus musculus [28] = test: Anti-inflammatory activity against LPS-induced […] mouse model of […] assessed as alleviation of interstitial edema in lung at 20 mg/kg, po pre-treated with compound for 30 mins followed by LPS stimulation and measured after 6 hrs by H&E staining based histopathological analysis; type: functional, organism-based; conditions: time 6.5 hrs
Mus musculus [29] = test: Anti-inflammatory activity against LPS-induced […] mouse model of […] assessed as alleviation of lung edema by measuring decrease in total lung protein level at 20 mg/kg, po pre-treated with compound for 30 mins followed by LPS stimulation and measured after 6 hrs; type: functional, organism-based; conditions: time 6.5 hrs
Mus musculus [30] = test: Anti-inflammatory activity against LPS-induced […] mouse model of […] assessed as decrease in TNF-alpha level in serum at 20 mg/kg, po pre-treated with compound for 30 mins followed by LPS stimulation and measured after 6 hrs; type: functional, organism-based; conditions: time 6.5 hrs
Mus musculus [31] = test: Anti-inflammatory activity against LPS-induced […] mouse model of […] assessed as decrease in IL-6 mRNA level in lung at 20 mg/kg, po pre-treated with compound for 30 mins followed by LPS stimulation and measured after 6 hrs by qRT-PCR analysis; type: functional, organism-based; conditions: time 6.5 hrs
Mus musculus [32] = test: Anti-inflammatory activity against LPS-induced […] mouse model of […] assessed as decrease in TNF-alpha mRNA level in lung at 20 mg/kg, po pre-treated with compound for 30 mins followed by LPS stimulation and measured after 6 hrs by qRT-PCR analysis; type: functional, organism-based; conditions: time 6.5 hrs

## COc1ccc(NS(=O)(=O)c2ccc(N3CCN(Cc4cccc([N+](=O)[O-])c4)CC3)c([N+](=O)[O-])c2)cn1
[1]
  Kd: 53 µM
J774.A1 [2]
  IC50: 8.17 µM
THP-1
  inhibition: Active
J774.A1 [3]
  inhibition: Dose-Dependent Effect
J774.A1 [4]
  inhibition: Active
[5]
  Stability: Stable
[6]
  half-life: 1.1 h
[7]
  Tmax: 6 min
[8]
  half-life: 7 h
[9]
  Cmax: 2210 ng/mL
[10]
  AUCt: 68163 ng·h/mL
[11]
  F: 14.2%
[12]
  concentration at 0.5 h: 52.1 ng/g
[13]
  concentration at 0.5 h: 52.5 ng/g
[14]
  concentration at 0.5 h: 98.2 ng/g
[15]
  concentration at 2 h: 118 ng/g
[16]
  concentration at 2 h: 143 ng/g
[17]
  concentration at 2 h: 0.66 ng/g
[18]
  concentration at 4 h: 250 ng/g
[19]
  concentration at 4 h: 502 ng/g
[20]
  concentration at 4 h: 113 ng/g
[21]
  concentration at 1 h: 267 ng/g
[22]
  concentration at 1 h: 78.8 ng/g
[23]
  concentration at 8 h: 656 ng/g
[24]
  concentration at 8 h: 39.9 ng/g
[25]
  concentration at 8 h: 137 ng/g
[26]
  Activity: Non-Toxic
Mus musculus [27]
  Activity: Active
Mus musculus [28]
  Activity: Active
Mus musculus [29]
  Activity: Active
Mus musculus [30]
  Activity: Active
Mus musculus [31]
  Activity: Active
Mus musculus [32]
  Activity: Active
